From US10941157B2, “Pesticidal compositions and uses thereof” (Gilead Apollo, LLC, priority 2015, dated 2021)
Converted amounts (≈) assume the structure as drawn. Where two headings read alike, the source gives them in different places.

Columns and labels:
Botrtyis cinerea (Bc) = experiment: In vitro pathogen growth inhibition assay, Bc; format: cell-based; details: 48 h
Method in brief: (§1)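 Spores in 17% V8 liquid medium, or 1.5 mm Rs mycelial plugs in ¼ PDB, incubated with compound; final concentration checked by OD600 for precipitation. OD readings at 24 and 48 h, blank-subtracted, plus visual ratings; value is concentration giving ≥90% growth inhibition.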

[1] = test system: Collectotrichum graminicola (Cg); experiment: In vitro pathogen growth inhibition assay, Cg; format: cell-based; details: 48 h
Method in brief: as §1

Diplodia maydis (Dm) = experiment: In vitro pathogen growth inhibition assay, Dm; format: cell-based; details: Stenocarpella maydis, 48 h
Method in brief: as §1

[2] = test system: Fusarium moniliforme (Fm); experiment: In vitro pathogen growth inhibition assay, Fm; format: cell-based; details: Fusarium verticillioides
Method in brief: as §1

[3] = test system: Fusarium virguliforme (Fv); experiment: In vitro pathogen growth inhibition assay, Fv; format: cell-based
Method in brief: as §1

[4] = test system: Phytophthora capsici (Pc); experiment: In vitro pathogen growth inhibition assay, Pc; format: cell-based; details: 48 h
Method in brief: as §1

Rhizoctonia solani (Rs) = experiment: In vitro pathogen growth inhibition assay, Rs (mycelial plugs); format: cell-based; details: Rhizoctonia solani, 48 h, mycelial plugs
Method in brief: as §1

Septoria tritici (St) = experiment: In vitro pathogen growth inhibition assay, St; format: cell-based; details: Zymoseptoria tritici, 48 h
Method in brief: as §1

[5] = test system: Blumeria graminis f. sp. hordei; experiment: Foliar protection test for barley powdery mildew control; format: in vivo; details: foliar spray on Hordeum vulgare cv. Perry, inoculated 24 hours after treatment, evaluated 7 days later
Method in brief: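 Six-day-old barley (cv. Perry) sprayed to wetness on both leaf sides; 24 h later inoculated by shaking spores from infected stock plants. Kept at 20 to 22° C, 70% relative humidity; mildew colonization assessed 7 days later.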

Sphaerotheca fuliginea = experiment: Foliar protection for cucumber powdery mildew control; format: in vivo; details: foliar spray on Cucumis sativus cv. Straight Eight, inoculated 24 hours after treatment, evaluated 7 days later
Method in brief: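 Cucumber plants (cv. Straight Eight, 10 days old) sprayed to wetness on both leaf surfaces, then inoculated 24 h later by shaking sporulating stock plants over them. Held at 23–27 °C, 16 h light, 60% RH. Mildew colonization scored 7 days after inoculation, at compound concentrations of 10 ppm or lower.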

[6] = test system: Mycosphaerella graminicola (synthetic Septoria tritici); experiment: Foliar protection test for wheat septoria leaf blotch control; format: in vivo; details: foliar spray on Triticum aestivum cv. WinterHawk, inoculated 1 hour after treatment, evaluated 16 days later
Fusarium graminearum [7] = format: in vivo; details: spray on flowering Triticum aestivum cv. Samson, inoculated 24 hours after treatment, evaluated 14 days later
Puccinia triticina = experiment: Foliar protection test for wheat leaf rust control; format: in vivo; details: foliar application to wheat (Triticum aestivum cv. Winterhawk), evaluated 10 days later
Phakopsora pachyrhizi = experiment: Foliar protection test for Asian soybean rust control; format: in vivo; details: foliar application to soybean (Glycine max AG4832), percent disease area evaluated 14 days later
Fusarium graminearum [8] = format: in vivo; details: corn from treated seeds, 0.025 mg/seed, F. graminearum inoculated
[9] = test system: Blumeria graminis f. sp. hordei; experiment: Early foliar disease control via seed treatment (barley powdery mildew); format: in vivo; details: seed treatment rate 0.025 mg/seed; barley inoculated 7 days after planting, evaluated 7 days later
Experimental: Barley seeds (Hordeum vulgare cv. Perry or Conlon) were treated with a test compound dissolved in pure acetone, in which the acetone solution (1 mL) was used per 50 seeds in glass jars in a fume hood. The seeds were swirled in the glass jars by hand until no obvious presence of acetone remained and the seeds were mostly dry. Plants were grown for 7 days in 2-inch square pots containing Metromix 200 medium amended with fertilizer. […] After inoculation with the pathogen of Blumeria graminis f. sp. hordei, plants were kept at conditions of 20 to 22° C., 200 uM of light, 70% humidity to facilitate infection and disease development. At 7 days after planting (1st true leaf fully expanded), the plants were moved to the cooler chamber and inoculated by shaking well-colonized, untreated stock plants above the treated material. […] Efficacy was evaluated in 7 days later by examining leaves for colonization and growth of powdery mildew. Each side of each leaf was assigned a severity rating of 0, 1, 5, 10, 25, 50, 75, or 100 percent diseased area. Table 14 lists the results of barley powdery mildew control upon seed treatment with test compounds.

[10] = ≥90% growth inhibition, 48 hours, vs 2% DMSO control, read-out: Compound Concentration (ppm) sufficient for ≥90% inhibition of Bc
[11] = ≥90% growth inhibition, 48 hours, vs 2% DMSO control, read-out: Compound Concentration (ppm) sufficient for ≥90% inhibition of Cg
[12] = ≥90% growth inhibition, 48 hours, vs 2% DMSO control, read-out: Compound Concentration (ppm) sufficient for ≥90% inhibition of Dm
[13] = ≥90% growth inhibition, 48 hours, vs 2% DMSO control, read-out: Compound Concentration (ppm) sufficient for ≥90% inhibition of Fm
[14] = ≥90% growth inhibition, 48 hours, vs 2% DMSO control, read-out: Compound Concentration (ppm) sufficient for ≥90% inhibition of Fv
[15] = ≥90% growth inhibition, 48 hours, vs 2% DMSO control, read-out: Compound Concentration (ppm) sufficient for ≥90% inhibition of Pc
[16] = ≥90% growth inhibition, 48 hours, vs 2% DMSO control, read-out: Compound Concentration (ppm) sufficient for ≥90% inhibition of Rs
[17] = ≥90% growth inhibition, 48 hours, vs 2% DMSO control, read-out: Compound Concentration (ppm) sufficient for ≥90% inhibition of St

SMILES	Barley Powdery Mildew Control at a compound concentration of 10 ppm or lower [5]	Cucumber Powdery Mildew Control at a compound concentration of 10 ppm or lower (Sphaerotheca fuliginea)	Septoria Leaf Blotch Control at a compound concentration of 25 ppm or lower [6]	Wheat Fusarium Head Blight Control at a compound concentration of 25 ppm or lower (Fusarium graminearum [7])	Wheat Leaf Rust Control at a compound concentration of 10 ppm or lower (Puccinia triticina)	Asian Soybean Rust Control at a compound concentration of 25 ppm or lower (Phakopsora pachyrhizi)	IC90 (Botrtyis cinerea (Bc); [10]) [µg/mL]	IC90 [1, 11] [µg/mL]	IC90 (Diplodia maydis (Dm); [12]) [µg/mL]	IC90 [2, 13] [µg/mL]	IC90 [3, 14] [µg/mL]	IC90 [4, 15] [µg/mL]	IC90 (Rhizoctonia solani (Rs); [16]) [µg/mL]	IC90 (Septoria tritici (St); [17]) [µg/mL]	Plant Height (Fusarium graminearum [8]; Table 13) [cm]	also measured
COc1ccc(F)cc1[C@H](Cn1c(=O)n(C(C)(C)C(=O)NC(C)C)c(=O)c2c(C)c(-n3nccn3)sc21)OC(C)C [Compound I-020, (R)-2-(1-(2-(5-fluoro-2-methoxyphenyl)-2-isopropoxyethyl)-5-methyl-2,4-dioxo-6-(2H-1,2,3-triazol-2-yl)-1,4-dihydrothieno[2,3-d]pyrimidin-3 (2H)-yl)-N-isopropyl-2-methylpropanamide]	AA (≥85% control of barley powdery mildew)	AA (≥85% control of cucumber powdery mildew)	B (from 50 to 69% control of wheat septoria leaf blotch)	B (from 50 to 69% control of wheat fusarium head blight)	B (from 50 to 69% control of wheat leaf rust)	B (from 50 to 69% control of Asian soybean rust)										IC90 (Botrtyis cinerea (Bc); ≥90% inhibition, 48 hours vs 2% DMSO control, read-out: Compound Concentration (ppm) sufficient for ≥90% inhibition of growth, Bc): ≥ 0.08 µg/mL; IC90 ([1]; ≥90% inhibition, 48 hours vs 2% DMSO control, read-out: Compound Concentration (ppm) sufficient for ≥90% inhibition of growth, Cg): 0.08 µg/mL (≈ 0.136 µM); IC90 (Diplodia maydis (Dm); ≥90% inhibition, 48 hours vs 2% DMSO control, read-out: Compound Concentration (ppm) sufficient for ≥90% inhibition of growth, Dm): 0.08 µg/mL (≈ 0.136 µM); IC90 ([2]; ≥90% inhibition, 48 hours vs 2% DMSO control, read-out: Compound Concentration (ppm) sufficient for ≥90% inhibition of growth, Fm): 0.08 µg/mL (≈ 0.136 µM); IC90 ([3]; ≥90% inhibition, 48 hours vs 2% DMSO control, read-out: Compound Concentration (ppm) sufficient for ≥90% inhibition of growth, Fv): 0.4 µg/mL (≈ 0.682 µM); IC90 ([4]; ≥90% inhibition, 48 hours vs 2% DMSO control, read-out: Compound Concentration (ppm) sufficient for ≥90% inhibition of growth, Pc): > 50 µg/mL; IC90 (Rhizoctonia solani (Rs); ≥90% inhibition, 48 hours vs 2% DMSO control, read-out: Compound Concentration (ppm) sufficient for ≥90% inhibition of growth, Rs): 0.08 µg/mL (≈ 0.136 µM); IC90 (Septoria tritici (St); ≥90% inhibition, 48 hours vs 2% DMSO control, read-out: Compound Concentration (ppm) sufficient for ≥90% inhibition of growth, St): ≥ 2 µg/mL; Plant Height (Fusarium graminearum [8]; Table 12): 40.53 cm; Barley Powdery Mildew Reduction (%) [9]: 91%
COc1ccc(F)cc1[C@H](Cn1c(=O)n([C@H](C)C(=O)N(C)C(C)C)c(=O)c2c(C)c(-n3nccn3)sc21)OCCC#N [Compound I-205, (R)-2-(1-((R)-2-(2-cyanoethoxy)-2-(5-fluoro-2-methoxyphenyl)ethyl)-5-methyl-2,4-dioxo-6-(2H-1,2,3-triazol-2-yl)-1,4-dihydrothieno[2,3-d]pyrimidin-3 (2H)-yl)-N-isopropyl-N-methylpropanamide]	AA (≥85% control of barley powdery mildew)	AA (≥85% control of cucumber powdery mildew)	AA (≥85% control of wheat septoria leaf blotch)	C (from 25 to 49% control of wheat fusarium head blight)	AA (≥85% control of wheat leaf rust)	AA (≥85% control of Asian soybean rust)	0.4 (≈ 0.669 µM)	0.4 (≈ 0.669 µM)	≥ 0.08	0.4 (≈ 0.669 µM)	0.4 (≈ 0.669 µM)	> 50	0.08 (≈ 0.134 µM)	> 50	41.47	
CCNC(=O)C(C)(C)n1c(=O)c2c(C)c(-n3nccn3)sc2n(C[C@H](OCCC#N)c2cc(F)ccc2OC)c1=O [Compound I-206, (R)-2-(1-(2-(2-cyanoethoxy)-2-(5-fluoro-2-methoxyphenyl)ethyl)-5-methyl-2,4-dioxo-6-(2H-1,2,3-triazol-2-yl)-1,4-dihydrothieno[2,3-d]pyrimidin-3 (2H)-yl)-N-ethyl-2-methylpropanamide]	AA (≥85% control of barley powdery mildew)	AA (≥85% control of cucumber powdery mildew)	AA (≥85% control of wheat septoria leaf blotch)	B (from 50 to 69% control of wheat fusarium head blight)	AA (≥85% control of wheat leaf rust)	AA (≥85% control of Asian soybean rust)	0.4 (≈ 0.685 µM)	0.4 (≈ 0.685 µM)	0.4 (≈ 0.685 µM)	0.08 (≈ 0.137 µM)	0.4 (≈ 0.685 µM)	> 50	0.08 (≈ 0.137 µM)	> 50	42.72	
COc1ccc(F)cc1[C@H](Cn1c(=O)n([C@H](C)C(=O)NC(C)C)c(=O)c2c(C)c(-n3nccn3)sc21)OCC(C)(C)C#N [Compound I-253, (R)-2-(1-((R)-2-(2-cyano-2-methylpropoxy)-2-(5-fluoro-2-methoxyphenyl)ethyl)-5-methyl-2,4-dioxo-6-(2H-1,2,3-triazol-2-yl)-1,4-dihydrothieno[2,3-d]pyrimidin-3 (2H)-yl)-N-isopropylpropanamide]	A (from 70% to 84% control of barley powdery mildew)	AA (≥85% control of cucumber powdery mildew)	AA (≥85% control of wheat septoria leaf blotch)	B (from 50 to 69% control of wheat fusarium head blight)	AA (≥85% control of wheat leaf rust)	A (from 70% to 84% control of Asian soybean rust)	0.4 (≈ 0.654 µM)	0.4 (≈ 0.654 µM)	0.4 (≈ 0.654 µM)	0.08 (≈ 0.131 µM)	0.4 (≈ 0.654 µM)	≥ 50	0.08 (≈ 0.131 µM)	≥ 2	37.81	
